From patent publication US9789114B2, “Compounds as HIF-1α inhibitors and manufacturing process thereof” (DONGGUK UNIVERSITY INDUSTRY-ACADEMIC COOPERATION FOUNDATION, priority 2011, dated 2017)
Read-outs that look alike come from different tables or passages of the source.

Key:
[1] = system: HIF-1α-mediated HRE transcriptional activity; assay: Assay for inhibition of HIF-1α-mediated transcriptional activity (HRE reporter assay); format: cell-based, human; conditions: Homo sapiens, HCT-116, HCT116 cells, 12 hours under hypoxia (1% O2), read-out: Inhibitory activity against HIF-1α (10 μM)
Summary of the method: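 HCT116 human colon cancer cells co-transfected with pGL3 luciferase reporter carrying six HRE copies from human VEGF plus Renilla control, then treated with 0–20 μM compound for 12 h under hypoxia (1% O2). Inhibition taken from dual-luciferase reporter activity in lysates.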

HIF-1α = target: T1, HIF-1α (Homo sapiens, UniProt Q16665); assay: Inhibition of hypoxia-induced HIF-1α accumulation, western blot in HCT116 cells; format: cell-based; conditions: HCT116, hypoxia 1% O2, 0-30 μM, 12 hours, FIG. 1
T1 construct: endogenous in cells; host or cells: HCT116 human colon cancer cells (ATCC #CCL-247)
Procedure: <Experiment 2> In Vitro Studies for Inhibition of Hypoxia-Induced HIF-1α Accumulation
Inhibition of HIF-1α accumulation by the compounds according to the present invention was determined in HCT116 human colon cancer cells. In particular, western blot analysis was used to identify the compounds, I-3, I-6, I-8, I-16, I-19, I-22˜I-24, and I-27˜I-36, which inhibited HIF-1α accumulation under hypoxia.
(§1) First, HCT116 human colon cancer cells (ATCC #CCL-247) were plated at the concentration of 2×10^5 cells/ml. After 24 hours, the cells were incubated under hypoxia (1% O2, 94% N2, and 5% CO2, expressed as 1% O2 in FIG. 1) for 4 hours in order to induce HIF-la accumulation. Cells were treated with the compounds at various concentrations (0, 3, 10, 20, and 30 μM) for 12 hours under hypoxia. The cells were then harvested, and lysed in RIPA buffer to obtain nuclear extracts. Cells grown at 20% O2 (normoxia) were used as control groups to compare HIF-1α-mediated gene expression under each condition. 30 μg of the nuclear extracts per sample was separated by SDS-PAGE (sodium dodecyl sulfate-polyacrylamide gel electrophoresis), and was then transferred to PVDF (polyvinylidene fluoride membrane) membranes. After membranes were probed with HIF-1α antibodies (R&D System), HIF-1α proteins were detected with HRP-conjugated secondary antibodies (Amersham-Pharmacia). GAPDH (Glyceraldehyde 3-phosphate dehydrogenase) was used as an internal control for loading in western blot analysis.

GAPDH = GAPDH expression level (internal control) in western blot, HCT116 cells; format: cell-based, human; conditions: HCT116, hypoxia 1% O2, 0-30 μM, 12 hours, FIG. 1
Procedure: as §1

[2] = system: Chick embryo chorioallantoic membrane; assay: CAM (chick embryo chorioallantoic membrane) assay; format: in vivo; conditions: 10-20 μg on coverslip, 2 days, FIG. 2
Procedure: CAM (Chick embryo chorioallantoic membrane) assay was conducted as an in vivo model to determine whether the compounds according to the present invention, I-3, I-6, I-19, and I-22, had anti-angiogenic effects or not. DMSO-treated groups were used as negative controls.
According to the present invention, CAM assay was performed as follows.
Fertilized eggs were incubated periodically rolling at 37° C. with 50% humidity for 2-3 days. When eggs were erected, approximately 3 ml of albumin was extracted from the sharp edge of the eggs using a syringe. The hole of the eggs was sealed with a tape to prevent from dryness and contamination, and the hole of the eggs was put down and incubated for 2 to 3 days. After punching a hole with 1.5 cm diameter in the round part of eggs, opaque membrane was removed carefully. The compounds (10-20 μg) according to the present invention were placed and spread on thermanox coverslip equally to dry, and then the hole in the round part of eggs put on the upper part of the fertilized eggs that vessels grew. The eggs were examined under the dissecting microscope and the results were given in FIG. 2, after covering the hole with a coverglass to protect it from contamination for 2 days.

[3] = system: HCT116 colon cancer cells; assay: In vivo anti-cancer activity by oral administration, HCT116 tumor in nude mice; design: species or system BALB/c nu/nu mice; conditions: for inhibition in vivo at 20 mg/kg: Mus musculus
Procedure: <Example 4> In Vivo Anti-Cancer Activity of Compounds by Oral Administration
(§2) In vivo anti-cancer activity of the compounds according to the present invention, I-3, I-6, I-8, I-16, I-19, I-22, I-23, and I-24, was measured in mice to evaluate in vivo efficacy by oral administration. Specifically, the nude mice were divided into test groups and control groups, each consisting of 4 mice. In vivo efficacy was evaluated by measuring body weight, tumor volume, and tumor weight.
(§3) Female nude mice 6 weeks old (BALB/c nu/nu, Charles River) were bred in germ-free breeding rooms maintained at constant temperature and humidity. After the nude mice were anesthetized, HCT116 colon cancer cells were implanted at a count of […] cells/mouse into the rectum in BALB/c nu/nu mice and then the incisions were closed with surgical clips. The size of tumor was measured by a caliper. When the size of transplanted tumor reached to 50˜60 mm^3, the above compounds according to the present invention were administered. In more detail, after the above compounds in test groups were dissolved at concentration of 20 mg/kg in a solvent containing 80% of physiological saline, 10% of DMAC (dimethylacetamide), and 10% Tween 80 (hereinafter referred to as ‘Solvent A’), […] of dissolved compounds were orally administered once a day. Mice in control groups were treated with […] of Solvent A alone once daily.
(§4) Tumor volume and body weight were measured to identify in vivo anti-cancer activity of the compounds according to the present invention by repetitive oral administration. Tumor volume and tumor growth inhibition (TGI) in Table 2 were calculated according to the below Mathematic FIG. 1 and FIG. 2, respectively. Tumor growth inhibition was converted to a percentage in Table 2.

[4] = Body weight change and side effects during 14 days of oral treatment in nude mice; format: in vivo, BALB/c nu/nu mice
Procedure: as §2, §3, §4
Moreover, severe side effects and statistically significant changes of body weight in all mice treated compounds were not shown for 14 days, comparing to control groups treated with vehicle. (Table 3)

[5] = day 3, 20 mg/kg oral once a day
[6] = day 5, 20 mg/kg oral once a day
[7] = day 7, 20 mg/kg oral once a day
[8] = day 10, 20 mg/kg oral once a day
[9] = day 12, 20 mg/kg oral once a day
[10] = day 14, 20 mg/kg oral once a day

T1 sequence (Q16665 whole entry): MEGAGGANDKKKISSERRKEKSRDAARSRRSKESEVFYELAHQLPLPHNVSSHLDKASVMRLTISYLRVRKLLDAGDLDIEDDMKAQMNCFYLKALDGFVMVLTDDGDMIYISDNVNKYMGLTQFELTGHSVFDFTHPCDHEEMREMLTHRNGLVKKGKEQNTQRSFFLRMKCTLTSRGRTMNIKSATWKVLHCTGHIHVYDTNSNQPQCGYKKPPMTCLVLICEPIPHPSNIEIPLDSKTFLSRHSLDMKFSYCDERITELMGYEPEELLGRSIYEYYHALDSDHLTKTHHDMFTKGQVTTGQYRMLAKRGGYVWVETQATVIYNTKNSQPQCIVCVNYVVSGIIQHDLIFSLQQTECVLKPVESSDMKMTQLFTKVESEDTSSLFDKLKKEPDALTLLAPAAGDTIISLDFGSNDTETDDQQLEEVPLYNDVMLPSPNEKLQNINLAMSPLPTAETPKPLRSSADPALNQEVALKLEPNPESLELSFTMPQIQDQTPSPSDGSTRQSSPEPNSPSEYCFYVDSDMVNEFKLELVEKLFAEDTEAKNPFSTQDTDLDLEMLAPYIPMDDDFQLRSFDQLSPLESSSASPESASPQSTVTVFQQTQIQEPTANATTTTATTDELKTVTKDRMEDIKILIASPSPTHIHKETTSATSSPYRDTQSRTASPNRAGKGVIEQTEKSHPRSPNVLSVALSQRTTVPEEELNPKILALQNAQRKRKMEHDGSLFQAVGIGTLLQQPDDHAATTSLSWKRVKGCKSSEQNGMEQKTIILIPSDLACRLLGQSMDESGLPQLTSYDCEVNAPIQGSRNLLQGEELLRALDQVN

**Q.** For `Cc1cc(C23CC4CC(CC(C4)C2)C3)ccc1OCC(=O)N1CCOCC1` [Compound I-6, 2-(4-(Adamantan-1-yl)-2-methylphenoxy)-1-morpholinoethanone], which inhibition at 10 µM [1] is on record?
**A.** The inhibition at 10 µM was 76 to 100%.

**Q.** What about the HIF-1α degradation (HIF-1α) of the same molecule?
**A.** Its HIF-1α degradation is “promoted HIF-1α degradation”.

**Q.** And the GAPDH expression levels (GAPDH)?
**A.** The GAPDH expression levels was “did not affect GAPDH expression levels”.

**Q.** What about the “formation of vessels (anti-angiogenic effect)” value [2] of the same molecule?
**A.** The value was “inhibited formation of vessels”.

**Q.** And the inhibition in vivo at 20 mg/kg ([3]; HCT-116, 72 h, day 3, 20 mg/kg oral once a day, read-out: TGI (tumor growth inhibition), tumor volume)?
**A.** The inhibition in vivo at 20 mg/kg was 25%.

**Q.** And the inhibition in vivo at 20 mg/kg ([3]; HCT-116, 120 h, day 5, 20 mg/kg oral once a day, read-out: TGI (tumor growth inhibition), tumor volume)?
**A.** The inhibition in vivo at 20 mg/kg was 24.1%.

**Q.** And the inhibition in vivo at 20 mg/kg ([3]; HCT-116, 168 h, day 7, 20 mg/kg oral once a day, read-out: TGI (tumor growth inhibition), tumor volume)?
**A.** Its inhibition in vivo at 20 mg/kg is 26.5%.

**Q.** And the inhibition in vivo at 20 mg/kg ([3]; HCT-116, 240 h, day 10, 20 mg/kg oral once a day, read-out: TGI (tumor growth inhibition), tumor volume)?
**A.** Its inhibition in vivo at 20 mg/kg is 28.4%.

**Q.** What about the inhibition in vivo at 20 mg/kg ([3]; HCT-116, 288 h, day 12, 20 mg/kg oral once a day, read-out: TGI (tumor growth inhibition), tumor volume) of the same molecule?
**A.** The inhibition in vivo at 20 mg/kg was 28.1%.

**Q.** And the inhibition in vivo at 20 mg/kg ([3]; HCT-116, 336 h, day 14, 20 mg/kg oral once a day, read-out: TGI (tumor growth inhibition), tumor volume)?
**A.** Its inhibition in vivo at 20 mg/kg is 28.4%.

**Q.** And the inhibition in vivo at 20 mg/kg ([3]; HCT-116, 336 h, day 14, 20 mg/kg oral once a day, read-out: TGI (tumor growth inhibition), tumor weight)?
**A.** The inhibition in vivo at 20 mg/kg was 28.1%.

**Q.** And the Tumor volume [3, 5]?
**A.** The Tumor volume was 25.5 ± 7.5 mm^3.

**Q.** What about the Tumor volume [3, 6] of the same molecule?
**A.** Its Tumor volume is 70.1 ± 9.7 mm^3.

**Q.** What about the Tumor volume [3, 7] of the same molecule?
**A.** Its Tumor volume is 128.4 ± 14.0 mm^3.

**Q.** What about the Tumor volume [3, 8] of the same molecule?
**A.** Its Tumor volume is 186.6 ± 15.2 mm^3.

**Q.** And the Tumor volume [3, 9]?
**A.** The Tumor volume was 322.5 ± 19.6 mm^3.

**Q.** What about the Tumor volume [3, 10] of the same molecule?
**A.** The Tumor volume was 476.9 ± 28.1 mm^3.

**Q.** And the Tumor weight [3, 10]?
**A.** Its Tumor weight is 1703.3 ± 252.2 mg.

**Q.** What about the Body weight change ([4]; day 0, 20 mg/kg oral once a day) of the same molecule?
**A.** The Body weight change was 100.0 ± 0.0%.

**Q.** What about the Body weight change [4, 5] of the same molecule?
**A.** Its Body weight change is 103.4 ± 0.6%.

**Q.** What about the Body weight change [4, 6] of the same molecule?
**A.** The Body weight change was 103.6 ± 2.6%.

**Q.** What about the Body weight change [4, 7] of the same molecule?
**A.** Its Body weight change is 103.8 ± 3.3%.

**Q.** And the Body weight change [4, 8]?
**A.** Its Body weight change is 105.0 ± 3.1%.

**Q.** And the Body weight change [4, 9]?
**A.** Its Body weight change is 103.8 ± 2.9%.

**Q.** And the Body weight change [4, 10]?
**A.** Its Body weight change is 102.4 ± 3.0%.
